Source: ChEMBL document CHEMBL4837192, “The Bisindole Alkaloids Angustilongines M and A from Alstonia penangiana Induce Mitochondrial Apoptosis and G0/G1 Cell Cycle Arrest in HT-29 Cells through Promotion of Tubulin Polymerization” (J Nat Prod, 2021)
The source made the active and inactive calls. The calls are words filed in the database; no cut-off is given here.

Experiments:
[1] = tested on: HT-29; experiment: Antiproliferative activity against human HT-29 cells cultured as 3D spheroids assessed as inhibition of spheroid formation measured after 48 hrs by MTT assay; format: functional, cell-based; conditions: HT-29, 48 h
[2] = tested on: KB; experiment: Cytotoxicity against human vincristine-sensitive KB cells assessed as cell growth inhibition measured after 72 hrs by MTT assay; format: functional, cell-based
[3] = tested on: KB; experiment: Cytotoxicity against human vincristine-resistant KB cells assessed as cell growth inhibition measured after 72 hrs by MTT assay; format: functional, cell-based
[4] = tested on: PC-3; experiment: Cytotoxicity against human PC-3 cells assessed as cell growth inhibition measured after 72 hrs by MTT assay; format: functional, cell-based; conditions: PC-3, 72 h
[5] = tested on: MCF7; experiment: Cytotoxicity against human MCF7 cells assessed as cell growth inhibition measured after 72 hrs by MTT assay; format: functional, cell-based; conditions: MCF7, 72 h
[6] = tested on: MDA-MB-231; experiment: Cytotoxicity against human MDA-MB-231 cells assessed as cell growth inhibition measured after 72 hrs by MTT assay; format: functional, cell-based; conditions: MDA-MB-231, 72 h
[7] = tested on: HT-29; experiment: Cytotoxicity against human HT-29 cells assessed as cell growth inhibition measured after 72 hrs by MTT assay; format: functional, cell-based; conditions: HT-29, 72 h
[8] = tested on: HCT-116; experiment: Cytotoxicity against human HCT-116 cells assessed as cell growth inhibition measured after 72 hrs by MTT assay; format: functional, cell-based; conditions: HCT-116, 72 h
[9] = tested on: A549; experiment: Cytotoxicity against human A549 cells assessed as cell growth inhibition measured after 72 hrs by MTT assay; format: functional, cell-based; conditions: A549, 72 h
[10] = tested on: CCD-18Co; experiment: Cytotoxicity against human CCD-18Co cells assessed as cell growth inhibition measured after 72 hrs by MTT assay; format: cell-based
[11] = tested on: HT-29; experiment: Cytotoxicity against human HT-29 cells assessed as cell growth inhibition measured after 48 hrs by MTT assay; format: functional, cell-based; conditions: HT-29, 48 h
[12] = tested on: CCD-18Co; experiment: Cytotoxicity against human CCD-18Co cells assessed as cell growth inhibition measured after 48 hrs by MTT assay; format: cell-based
[13] = Selectivity index, ratio of IC50 for human CCD-18Co cells to IC50 for human HT-29 cells assessed as cell growth inhibition measured after 48 hrs by MTT assay
[14] = tested on: HT-29; experiment: Antiproliferative activity in human HT-29 cells cultured as 3D spheroids assessed as reduction in 3D structure of spheroid morphology at IC50 measured after 48 hrs; format: functional, cell-based
[15] = tested on: HT-29; experiment: Antiproliferative activity in human HT-29 cells cultured as 3D spheroids assessed as gradual disaggregation of peripheral cells at IC50 measured after 48 hrs; format: functional, cell-based
[16] = tested on: HT-29; experiment: Anticlonogenic activity against human HT-29 cells assessed as inhibition of colony formation measured after 6 days by methylene blue staining based assay; format: functional, cell-based; conditions: dose 1.35-2.7 µM, time 6.0 day
[17] = tested on: HT-29; experiment: Induction of cell cycle arrest in human HT-29 cells assessed as accumulation of cells at S phase at 2.7 uM measured after 24 hrs by propidium iodide staining based flow cytometry analysis (Rvb= 35.52%); format: functional
[18] = tested on: HT-29; experiment: Induction of cell cycle arrest in human HT-29 cells assessed as accumulation of cells at G1 phase at 2.7 uM measured after 24 hrs by propidium iodide staining based flow cytometry analysis (Rvb= 55.39%); format: functional
[19] = tested on: HT-29; experiment: Induction of cell cycle arrest in human HT-29 cells assessed as accumulation of cells at G2 phase at 2.7 uM measured after 24 hrs by propidium iodide staining based flow cytometry analysis (Rvb= 9.09%); format: functional
[20] = tested on: HT-29; experiment: Induction of cell cycle arrest in human HT-29 cells assessed as accumulation of cells at S phase at 2.7 uM measured after 48 hrs by propidium iodide staining based flow cytometry analysis (Rvb= 35.52%); format: functional
[21] = tested on: HT-29; experiment: Induction of cell cycle arrest in human HT-29 cells assessed as accumulation of cells at G1 phase at 2.7 uM measured after 48 hrs by propidium iodide staining based flow cytometry analysis (Rvb= 55.39%); format: functional
[22] = tested on: HT-29; experiment: Induction of cell cycle arrest in human HT-29 cells assessed as accumulation of cells at G2 phase at 2.7 uM measured after 48 hrs by propidium iodide staining based flow cytometry analysis (Rvb= 9.09%); format: functional
[23] = tested on: HT-29; experiment: Induction of cell cycle arrest in human HT-29 cells assessed as accumulation of cells at S phase at 2.7 uM measured after 72 hrs by propidium iodide staining based flow cytometry analysis (Rvb= 35.52%); format: functional
[24] = tested on: HT-29; experiment: Induction of cell cycle arrest in human HT-29 cells assessed as accumulation of cells at G1 phase at 2.7 uM measured after 72 hrs by propidium iodide staining based flow cytometry analysis (Rvb= 55.39%); format: functional
[25] = tested on: HT-29; experiment: Induction of cell cycle arrest in human HT-29 cells assessed as accumulation of cells at G2 phase at 2.7 uM measured after 72 hrs by propidium iodide staining based flow cytometry analysis (Rvb= 9.09%); format: functional
[26] = tested on: HT-29; experiment: Induction of apoptosis in human HT-29 cells assessed as viable cells at 2.7 uM measured after 24 hrs by FITC-annexin V/propidium iodide- double staining based flow cytometry analysis (Rvb= 83.8%); format: functional; conditions: read-out: Activity
[27] = tested on: HT-29; experiment: Induction of apoptosis in human HT-29 cells assessed as early apoptotic cells at 2.7 uM measured after 24 hrs by FITC-annexin V/propidium iodide- double staining based flow cytometry analysis (Rvb= 12.8%); format: functional
[28] = tested on: HT-29; experiment: Induction of apoptosis in human HT-29 cells assessed as late apoptotic cells at 2.7 uM measured after 24 hrs by FITC-annexin V/propidium iodide- double staining based flow cytometry analysis (Rvb= 3.0%); format: functional
[29] = tested on: HT-29; experiment: Induction of apoptosis in human HT-29 cells assessed as dead cells at 2.7 uM measured after 24 hrs by FITC-annexin V/propidium iodide- double staining based flow cytometry analysis (Rvb= 0.4%); format: functional
[30] = tested on: HT-29; experiment: Induction of apoptosis in human HT-29 cells assessed as viable cells at 2.7 uM measured after 48 hrs by FITC-annexin V/propidium iodide- double staining based flow cytometry analysis (Rvb= 83.8%); format: functional; conditions: read-out: Activity
[31] = tested on: HT-29; experiment: Induction of apoptosis in human HT-29 cells assessed as early apoptotic cells at 2.7 uM measured after 48 hrs by FITC-annexin V/propidium iodide- double staining based flow cytometry analysis (Rvb= 12.8%); format: functional
[32] = tested on: HT-29; experiment: Induction of apoptosis in human HT-29 cells assessed as late apoptotic cells at 2.7 uM measured after 48 hrs by FITC-annexin V/propidium iodide- double staining based flow cytometry analysis (Rvb= 3.0%); format: functional
[33] = tested on: HT-29; experiment: Induction of apoptosis in human HT-29 cells assessed as dead cells at 2.7 uM measured after 48 hrs by FITC-annexin V/propidium iodide- double staining based flow cytometry analysis (Rvb= 0.4%); format: functional
[34] = tested on: HT-29; experiment: Induction of apoptosis in human HT-29 cells assessed as viable cells at 2.7 uM measured after 72 hrs by FITC-annexin V/propidium iodide- double staining based flow cytometry analysis (Rvb= 83.8%); format: functional; conditions: read-out: Activity
[35] = tested on: HT-29; experiment: Induction of apoptosis in human HT-29 cells assessed as early apoptotic cells at 2.7 uM measured after 72 hrs by FITC-annexin V/propidium iodide- double staining based flow cytometry analysis (Rvb= 12.8%); format: functional
[36] = tested on: HT-29; experiment: Induction of apoptosis in human HT-29 cells assessed as late apoptotic cells at 2.7 uM measured after 72 hrs by FITC-annexin V/propidium iodide- double staining based flow cytometry analysis (Rvb= 3.0%); format: functional
[37] = tested on: HT-29; experiment: Induction of apoptosis in human HT-29 cells assessed as dead cells at 2.7 uM measured after 72 hrs by FITC-annexin V/propidium iodide- double staining based flow cytometry analysis (Rvb= 0.4%); format: functional
[38] = tested on: HT-29; experiment: Induction of apoptosis in human HT-29 cells assessed as activation of caspase-3 at 2.7 uM measured after 24 hrs by flow cytometry analysis (Rvb= 2.2%); format: functional
[39] = tested on: HT-29; experiment: Induction of apoptosis in human HT-29 cells assessed as activation of caspase-3 at 2.7 uM measured after 48 hrs by flow cytometry analysis (Rvb= 2.2%); format: functional
[40] = tested on: HT-29; experiment: Induction of apoptosis in human HT-29 cells assessed as activation of caspase-3 at 2.7 uM measured after 72 hrs by flow cytometry analysis (Rvb= 2.2%); format: functional
[41] = tested on: HT-29; experiment: Induction of mitochondrial membrane potential loss in human HT-29 cells assessed as healthy cells at 2.7 uM measured after 24 hrs by JC-1 staining based flow cytometry analysis (Rvb= 91.4%); format: functional
[42] = tested on: HT-29; experiment: Induction of mitochondrial membrane potential loss in human HT-29 cells assessed as apoptotic cells at 2.7 uM measured after 24 hrs by JC-1 staining based flow cytometry analysis (Rvb= 8.6%); format: functional
[43] = tested on: HT-29; experiment: Induction of mitochondrial membrane potential loss in human HT-29 cells assessed as healthy cells at 2.7 uM measured after 48 hrs by JC-1 staining based flow cytometry analysis (Rvb= 91.4%); format: functional
[44] = tested on: HT-29; experiment: Induction of mitochondrial membrane potential loss in human HT-29 cells assessed as apoptotic cells at 2.7 uM measured after 48 hrs by JC-1 staining based flow cytometry analysis (Rvb= 8.6%); format: functional
[45] = tested on: HT-29; experiment: Induction of mitochondrial membrane potential loss in human HT-29 cells assessed as healthy cells at 2.7 uM measured after 72 hrs by JC-1 staining based flow cytometry analysis (Rvb= 91.4%); format: functional
[46] = tested on: HT-29; experiment: Induction of mitochondrial membrane potential loss in human HT-29 cells assessed as apoptotic cells at 2.7 uM measured after 72 hrs by JC-1 staining based flow cytometry analysis (Rvb= 8.6%); format: functional
[47] = target: Tubulin (Homo sapiens) (UniProt P68371+Q9H4B7+P0DPH7+P68366+Q13509+Q71U36+P04350+Q3ZCM7+P07437+P68363+Q9BQE3+Q6PEY2+Q13885+Q9BVA1+Q9BUF5); experiment: Induction of tubulin polymerization in human HT-29 cells assessed as stabilization of microtubules at 10 uM by spectrophotometric analysis; format: cell-based

O=c1[nH]cc(F)c(=O)[nH]1 [FLUOROURACIL]
IC50 [1]: 25.9 µM

C/C=C1/CN2[C@H]3C[C@@H]1[C@@H](CO)[C@@H]2Cc1c3n(C)c2ccc3c(c12)[C@H](C)[C@@H]1[C@@H](OC[C@@H]2[C@H]1C[C@H]1c4c(c5ccccc5n4C)C[C@@H]2N1C)O3
IC50 [2]: 5 µM | IC50 [3]: 7.6 µM | IC50 [4]: 6.1 µM | IC50 [5]: > 10 µM | IC50 [6]: 5.9 µM | IC50 [7]: 200 nM | IC50 [8]: 4.7 µM | IC50 [9]: 2100 nM | IC50 [10]: > 10 µM | IC50 [11]: 2700 nM | IC50 [12]: 14.1 µM | Ratio IC50 [13]: 5.32 | IC50 [1]: 3.8 µM | Activity [14]: Active | Activity [15]: Active | Activity [16]: Dose-Dependent Effect | Activity [17]: 19.88% | Activity [18]: 65.56% | Activity [19]: 14.56% | Activity [20]: 21.76% | Activity [21]: 66.11% | Activity [22]: 12.12% | Activity [23]: 24.39% | Activity [24]: 67.94% | Activity [25]: 7.67% | viability at 2.7 µM [26]: 77.6% | Activity [27]: 8.7% | Activity [28]: 12.8% | Activity [29]: 0.9% | viability at 2.7 µM [30]: 60.8% | Activity [31]: 32% | Activity [32]: 7.1% | Activity [33]: 0.1% | viability at 2.7 µM [34]: 17.7% | Activity [35]: 40.3% | Activity [36]: 41.6% | Activity [37]: 0.4% | Activity [38]: 1.9% | Activity [39]: 26% | Activity [40]: 67.8% | Activity [41]: 90.9% | Activity [42]: 9.1% | Activity [43]: 63.9% | Activity [44]: 36.1% | Activity [45]: 36.6% | Activity [46]: 63.4% | Activity [47]: Active
